From patent US5405849A, “Angiotensin II receptor blocking 2,3,6 substituted quinazolinones” (American Cyanamid Company, priority 1993, dated 1995)

System: angiotensin II (AII) vasopressor response
Test: AII challenge: antagonism of the vasopressor response of angiotensin II in conscious Okamoto-Aoki SHR
Assay type: in vivo, rat (Okamoto-Aoki SHR)
Details: for inhibition in vivo at 3 mg/kg / inhibition in vivo at 10 mg/kg / inhibition in vivo at 6 mg/kg / inhibition in vivo at 1 mg/kg / inhibition in vivo at 2 mg/kg / inhibition in vivo at 30 mg/kg / inhibition in vivo at 5 mg/kg: Rattus norvegicus; for inhibition in vivo at 3 mg/kg / inhibition in vivo at 10 mg/kg / inhibition in vivo at 6 mg/kg / inhibition in vivo at 1 mg/kg / inhibition in vivo at 2 mg/kg / inhibition in vivo at 30 mg/kg: iv; for inhibition in vivo at 3 mg/kg: 3 mg/kg iv; for inhibition in vivo at 30 mg/kg: 30 mg/kg iv; for inhibition in vivo at 5 mg/kg: po
From the text: Conscious Male Okamoto-Aoki SHR, 16-20 weeks old, weighing approximately 330 g are purchased from Charles River Labs (Wilmington, Mass.). Conscious rats are restrained in a supine position with elastic tape. The area at the base of the tail is locally anesthetized by subcutaneous infiltration with 2% procaine. The ventral caudal artery and vein are isolated, and a cannula made of polyethylene (PE) 10-20 tubing (fused together by heat) is passed into the lower abdominal aorta and vena cava, respectively. The cannula is secured, heparinized (1,000 I.U./ml), sealed and the wound is closed. The animals are placed in plastic restraining cages in an upright position. The cannula is attached to a Statham P23Db pressure transducer, and pulsatile blood pressure is recorded to 10-15 minutes with a Gould Brush recorder.
Angiotensin II (human sequence, Sigma Chem. Co., St. Louis, Mo.) of 0.05 and 0.1 ug/kg i.v. is injected into all rats (predosing response). Then a test compound, vehicle or a known angiotensin II antagonist is administered i.v., i.p. or orally to each set of rats. […] The vasopressor response of angiotensin II is measured for the increase in systolic blood pressure in mmHg. The percentage of antagonism or blockade of the vasopressor response of angiotensin II by a compound is calculated using the vasopressor response (increase in systolic blood pressure) of angiotensin II of each rat predosing the compound as 100%.

[1] = 1.5 h, 10 mg/kg iv, AII .05 ug/kg, 90 min

## CCCCc1nc2ccc(CO)cc2c(=O)n1Cc1ccc(-c2ccccc2-c2nnn[nH]2)cc1 [Example 53]
6 mg/kg iv, AII .025 ug/kg, 30 min
  Response change (systolic BP increase to AII): 15 mmHg
6 mg/kg iv, AII .025 ug/kg, 90 min
  Response change (systolic BP increase to AII): 10 mmHg
10 min, AII .05 ug/kg
  inhibition in vivo at 3 mg/kg: 62%
10 min, AII .1 ug/kg
  inhibition in vivo at 3 mg/kg: 42%
10 min, 10 mg/kg iv, AII .05 ug/kg
  inhibition in vivo at 10 mg/kg: 83%
10 min, 10 mg/kg iv, AII .1 ug/kg
  inhibition in vivo at 10 mg/kg: 90%
0.5 h, AII .025 ug/kg, 30 min
  inhibition in vivo at 3 mg/kg: 53%
0.5 h, 6 mg/kg iv, AII .025 ug/kg, 30 min
  inhibition in vivo at 6 mg/kg: 50%
0.5 h, 10 mg/kg iv, AII .05 ug/kg, 30 min, second 30/60/90 series
  inhibition in vivo at 10 mg/kg: 76%
0.5 h, 10 mg/kg iv, AII .1 ug/kg, 30 min, second 30/60/90 series
  inhibition in vivo at 10 mg/kg: 60%
1 h, AII .05 ug/kg, 60 min
  inhibition in vivo at 3 mg/kg: 30%
1 h, AII .1 ug/kg, 60 min
  inhibition in vivo at 3 mg/kg: 13%
1 h, 10 mg/kg iv, AII .05 ug/kg, 60 min, second 30/60/90 series
  inhibition in vivo at 10 mg/kg: 46%
1 h, 10 mg/kg iv, AII .1 ug/kg, 60 min, second 30/60/90 series
  inhibition in vivo at 10 mg/kg: 44%
1.5 h, AII .025 ug/kg, 90 min
  inhibition in vivo at 3 mg/kg: 47%
1.5 h, AII .1 ug/kg, 90 min
  inhibition in vivo at 3 mg/kg: 13%
1.5 h, 6 mg/kg iv, AII .1 ug/kg, 90 min
  inhibition in vivo at 6 mg/kg: 30%
[1]
  inhibition in vivo at 10 mg/kg: 41%
1.5 h, 10 mg/kg iv, AII .05 ug/kg, 90 min, second 30/60/90 series
  inhibition in vivo at 10 mg/kg: 35%
1.5 h, 10 mg/kg iv, AII .1 ug/kg, 90 min
  inhibition in vivo at 10 mg/kg: 56%
1.5 h, 10 mg/kg iv, AII .1 ug/kg, 90 min, second 30/60/90 series
  inhibition in vivo at 10 mg/kg: 26%

## CCCCc1nc2ccc(C(C)O)cc2c(=O)n1Cc1ccc(-c2ccccc2-c2nnn[nH]2)cc1 (centres unmarked) [Example 49, 2-Butyl-6-(1-hydroxyethyl)-3-[[2'-(1H-tetrazol-5-yl)-[1,1'-biphenyl]-4-yl]methyl]-4(3H)-quinazolinone]
1 mg/kg iv, AII .05 ug/kg, 30 min
  Response change (systolic BP increase to AII): 27 mmHg
1 mg/kg iv, AII .05 ug/kg, 45 min
  Response change (systolic BP increase to AII): 25 mmHg
1 mg/kg iv, AII .05 ug/kg, 90 min
  Response change (systolic BP increase to AII): 40 mmHg
1 mg/kg iv, AII .1 ug/kg, 30 min
  Response change (systolic BP increase to AII): 40 mmHg
1 mg/kg iv, AII .1 ug/kg, 45 min
  Response change (systolic BP increase to AII): 25 mmHg
1 mg/kg iv, AII .1 ug/kg, 90 min
  Response change (systolic BP increase to AII): 40 mmHg
2 mg/kg iv, AII .05 ug/kg, 120 min
  Response change (systolic BP increase to AII): 10 mmHg
2 mg/kg iv, AII .05 ug/kg, 150 min
  Response change (systolic BP increase to AII): 35 mmHg
2 mg/kg iv, AII .05 ug/kg, 180 min
  Response change (systolic BP increase to AII): 50 mmHg
2 mg/kg iv, AII .1 ug/kg, 120 min
  Response change (systolic BP increase to AII): 35 mmHg
2 mg/kg iv, AII .1 ug/kg, 150 min
  Response change (systolic BP increase to AII): 40 mmHg
2 mg/kg iv, AII .1 ug/kg, 180 min
  Response change (systolic BP increase to AII): 55 mmHg
10 mg/kg iv, AII .05 ug/kg, 30 min
  Response change (systolic BP increase to AII): 0 mmHg
10 mg/kg iv, AII .05 ug/kg, 90 min
  Response change (systolic BP increase to AII): 0 mmHg
10 mg/kg iv, AII .1 ug/kg, 30 min
  Response change (systolic BP increase to AII): 0 mmHg
0.5 h, 1 mg/kg iv, AII .05 ug/kg, 30 min
  inhibition in vivo at 1 mg/kg: 40%
0.5 h, 1 mg/kg iv, AII .1 ug/kg, 30 min
  inhibition in vivo at 1 mg/kg: 27%
0.5 h, 10 mg/kg iv, AII .05 ug/kg, 30 min
  inhibition in vivo at 10 mg/kg: 100%
0.5 h, 10 mg/kg iv, AII .1 ug/kg, 30 min
  inhibition in vivo at 10 mg/kg: 100%
0.75 h, 1 mg/kg iv, AII .05 ug/kg, 45 min
  inhibition in vivo at 1 mg/kg: 45%
0.75 h, 1 mg/kg iv, AII .1 ug/kg, 45 min
  inhibition in vivo at 1 mg/kg: 55%
1.5 h, 1 mg/kg iv, AII .05 ug/kg, 90 min
  inhibition in vivo at 1 mg/kg: 11%
1.5 h, 1 mg/kg iv, AII .1 ug/kg, 90 min
  inhibition in vivo at 1 mg/kg: 27%
[1]
  inhibition in vivo at 10 mg/kg: 100%
2 h, 2 mg/kg iv, AII .05 ug/kg, 120 min
  inhibition in vivo at 2 mg/kg: 78%
2 h, 2 mg/kg iv, AII .1 ug/kg, 120 min
  inhibition in vivo at 2 mg/kg: 36%
2.5 h, 2 mg/kg iv, AII .05 ug/kg, 150 min
  inhibition in vivo at 2 mg/kg: 23%
2.5 h, 2 mg/kg iv, AII .1 ug/kg, 150 min
  inhibition in vivo at 2 mg/kg: 27%
3 h, 2 mg/kg iv, AII .05 ug/kg, 180 min
  inhibition in vivo at 2 mg/kg: 11%
3 h, 2 mg/kg iv, AII .1 ug/kg, 180 min
  inhibition in vivo at 2 mg/kg: 0%

## CCCCc1nc2ccc(C(C)OC(C)=O)cc2c(=O)n1Cc1ccc(-c2ccccc2-c2nnn[nH]2)cc1 (centres unmarked) [Example 58, 6-[1-(Acetyloxy)ethyl]-2-butyl-3-[[2'-(1H-tetrazol-5-yl)[1,1'-biphenyl]-4-yl]methyl]-4(3H) -quinazolinone]
0.5 h, AII .05 ug/kg, 30 min
  inhibition in vivo at 30 mg/kg: 87%
0.5 h, AII .1 ug/kg, 30 min
  inhibition in vivo at 30 mg/kg: 98%
1.5 h, AII .05 ug/kg, 90 min
  inhibition in vivo at 30 mg/kg: 85%
1.5 h, AII .1 ug/kg, 90 min
  inhibition in vivo at 30 mg/kg: 95%
2.5 h, AII .05 ug/kg, 150 min
  inhibition in vivo at 30 mg/kg: 85%
2.5 h, AII .1 ug/kg, 150 min
  inhibition in vivo at 30 mg/kg: 81%

## CCCCc1nc2ccc(C(O)CC)cc2c(=O)n1Cc1ccc(-c2ccccc2-c2nnn[nH]2)cc1 (centres unmarked) [Example 52]
5 mg/kg oral, AII .05 ug/kg, 30 min
  Response change (systolic BP increase to AII): 25 mmHg
5 mg/kg oral, AII .05 ug/kg, 150 min
  Response change (systolic BP increase to AII): 15 mmHg
0.5 h, 5 mg/kg oral, AII .05 ug/kg, 30 min
  inhibition in vivo at 5 mg/kg: 52%
0.5 h, 5 mg/kg oral, AII .1 ug/kg, 30 min
  inhibition in vivo at 5 mg/kg: 43%
1.5 h, 5 mg/kg oral, AII .05 ug/kg, 90 min
  inhibition in vivo at 5 mg/kg: 66%
1.5 h, 5 mg/kg oral, AII .1 ug/kg, 90 min
  inhibition in vivo at 5 mg/kg: 63%
2.5 h, 5 mg/kg oral, AII .05 ug/kg, 150 min
  inhibition in vivo at 5 mg/kg: 71%
2.5 h, 5 mg/kg oral, AII .1 ug/kg, 150 min
  inhibition in vivo at 5 mg/kg: 60%
